From patent publication US20110038917A1, “THERAPEUTIC COMPOSITIONS AND METHODS FOR TREATING GRAM-NEGATIVE BACTERIAL INFECTIONS” (RQ Bioscience, Inc., priority 2007, published 2011)

System: Pseudomonas aeruginosa infection
Experiment: Self-administered inhalation by a cystic fibrosis patient with Pseudomonas aeruginosa infection: patient-reported signs of infection
Assay type: in vivo, human
Conditions: for initial response of asthma and coughing to the antibiotic regimen: ciprofloxacin 2×1000 mg, Zithromax 1×500 mg daily and TOBI 2×5mg given together; for severity of asthma, frequency of coughing and quantity of expectorated mucus after three months on the antibiotics: ciprofloxacin, Zithromax and TOBI given together
Text: I. A cystic fibrosis patient described their asthma as increasingly severe and being present constantly during the day. They reported being more short-breathed than previously, often experiencing difficulty breathing after walking only 50 meters. They also reported an increasingly persistent cough, which escalated to almost every minute. They also described coughing up a “fluorescent light green” mucus. The patient further reported losing about 3.5 kg of weight.
After a lab test by their cystic fibrosis doctor, the patient was diagnosed with a Pseudomonas aeruginosa infection. They were prescribed the antibiotics ciprofloxacin (2×1000 mg), Zithromax® (azithromycin, 1×500 mg daily) and TOBI, an aerosolized form of tobramycin (2×5mg). […]
The patient reports that during the past 3 months they have resumed using the lactoferrin/OPC combination, as well as TOBI twice a day and Zithromax, and pulmozyme.

Compound	initial response of asthma and coughing to the antibiotic regimen	severity of asthma, frequency of coughing and quantity of expectorated mucus after three months on the antibiotics
O=C(O)c1cn(C2CC2)c2cc(N3CCNCC3)c(F)cc2c1=O [ciprofloxacin]	initial noticeable decrease in both the asthma and coughing	began increasing
CC[C@H]1OC(=O)[C@H](C)[C@@H](O[C@H]2C[C@@](C)(OC)[C@@H](O)[C@H](C)O2)[C@H](C)[C@@H](O[C@@H]2O[C@H](C)C[C@H](N(C)C)[C@H]2O)[C@](C)(O)C[C@@H](C)CN(C)[C@H](C)[C@@H](O)[C@]1(C)O [Zithromax, azithromycin]	initial noticeable decrease in both the asthma and coughing	began increasing
